EC50 data for 1 compound are collected here from US20260152504A1, “PYRIMIDINE SGC STIMULATORS” (Tisento Therapeutics Inc., priority 2022, published 2026).

Usually EC50 stands for the concentration at which the effect is half-maximal.

Structures are written as SMILES.

The test addresses T1, sGC (Rattus norvegicus, UniProt P20595).
T1 construct: Rat primary neurons were isolated from timed-pregnant female Sprague-Dawley (SD) rats; endogenous in cells; host or cells: rat primary neurons (Sprague-Dawley)
T1 sequence (P20595 1-619): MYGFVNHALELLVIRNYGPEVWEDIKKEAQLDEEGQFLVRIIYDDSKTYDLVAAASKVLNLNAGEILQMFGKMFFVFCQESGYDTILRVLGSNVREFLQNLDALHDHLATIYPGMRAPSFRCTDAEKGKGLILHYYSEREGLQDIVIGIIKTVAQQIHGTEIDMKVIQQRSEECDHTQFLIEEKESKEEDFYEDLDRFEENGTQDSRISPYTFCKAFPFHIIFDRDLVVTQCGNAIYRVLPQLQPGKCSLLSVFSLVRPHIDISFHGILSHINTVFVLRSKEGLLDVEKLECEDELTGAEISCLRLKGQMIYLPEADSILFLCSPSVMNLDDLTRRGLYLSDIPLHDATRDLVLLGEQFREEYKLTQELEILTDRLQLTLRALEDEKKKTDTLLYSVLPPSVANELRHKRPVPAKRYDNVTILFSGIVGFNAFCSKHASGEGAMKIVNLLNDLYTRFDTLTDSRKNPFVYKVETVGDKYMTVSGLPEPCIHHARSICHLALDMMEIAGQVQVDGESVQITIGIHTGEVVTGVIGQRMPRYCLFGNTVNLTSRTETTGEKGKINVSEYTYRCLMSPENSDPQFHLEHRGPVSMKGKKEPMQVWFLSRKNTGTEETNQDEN
T1 sequence (P19686 1-690 partner): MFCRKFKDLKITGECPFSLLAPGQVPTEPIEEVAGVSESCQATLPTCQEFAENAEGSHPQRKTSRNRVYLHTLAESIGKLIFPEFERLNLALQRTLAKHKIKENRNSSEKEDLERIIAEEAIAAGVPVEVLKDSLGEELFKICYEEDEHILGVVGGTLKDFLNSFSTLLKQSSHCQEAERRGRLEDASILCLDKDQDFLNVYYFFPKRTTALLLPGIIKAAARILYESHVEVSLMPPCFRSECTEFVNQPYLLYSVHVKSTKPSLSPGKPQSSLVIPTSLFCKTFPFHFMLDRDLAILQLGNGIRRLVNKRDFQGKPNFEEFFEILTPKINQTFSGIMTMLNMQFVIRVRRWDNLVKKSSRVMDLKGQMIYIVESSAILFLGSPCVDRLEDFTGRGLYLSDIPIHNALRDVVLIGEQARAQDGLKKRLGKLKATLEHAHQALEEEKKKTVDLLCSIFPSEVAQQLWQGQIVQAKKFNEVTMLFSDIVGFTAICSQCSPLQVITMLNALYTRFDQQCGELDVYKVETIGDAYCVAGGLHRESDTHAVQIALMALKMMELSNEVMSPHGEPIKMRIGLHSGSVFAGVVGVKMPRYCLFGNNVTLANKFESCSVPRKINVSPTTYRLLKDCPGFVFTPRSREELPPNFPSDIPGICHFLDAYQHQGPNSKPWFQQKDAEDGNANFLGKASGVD
Briefly: cGMP measurement in rat primary neurons (neuronal-based cell assay). The following applies: rat primary neurons (Sprague-Dawley); 0.5 mM IBMX; test compound with fixed DETA (Diethylenetriamine NONOate); 20 min at 37° C.; cGMP by CatchPoint kit; read-out: sGC Neuron EC50. As to the method: Example 2: cGMP Measurement in Rat Primary Neurons
Rat primary neurons were isolated from timed-pregnant female Sprague-Dawley (SD) rats, washed once with HBSS with calcium and magnesium and incubated with a solution containing 0.5 mM 3-isobutyl-1-methylxanthine (IBMX) in HBSS (80 μL/well) at 37° C. for 15 min. Next, a 5× stock […] of test compound with a fixed concentration of DETA (Diethylenetriamine NONOate) was added to the wells to make x nM concentration for test compound solutions and a 30 µM concentration for DETA solution, where x was 1 of the following final concentrations: 0.029, 0.114, 0.460, 1.83, 7.32, 29.29, 117.2, 468.8, 1875, 7500 and 30,000 nM. Then, the cells were incubated for 20 min at 37° C. At the end of incubation, 100 μL lysis buffer (Molecular Devices) was added to cells. CatchPoint™ Cyclic-GMP Fluorescent Assay Kit was used with Molecular Devices' ID3 multi-mode plate reading. Sample cGMP concentrations were extrapolated from standard curve using Softmax Pro 7 Software. A well-characterized, potent sGC stimulator was included in all assay runs and used as a positive control.
Test compound (“agonist”) concentrations vs extrapolated cGMP concentrations (“response”) were plotted and analyzed using GraphPad Prism version 9.4.1. Curve fit was used for each dataset; non-linear log(agonist) vs. response-variable slope (four parameters). The EC50 is interpolated from the curve fit and is defined as the concentration at which the compound elicits 50% of its maximal response. When the experiment is carried out more than two times, the geometric mean is reported, otherwise the arithmetic mean is shown. To increase the accuracy of the EC50 calculations, top and bottom parameters were constrained when consistent with the observed data in a given assay run. For instance, in assay runs where the cGMP response values in the absence of test article were consistent across plates, an average across all of these wells was used as a lower constraint in the calculations. In assay runs where the maximal cGMP responses were consistent with that of the positive control, a top constraint equal to the maximal cGMP response of the positive control was applied. If there was significant variability in cGMP response in no compound wells or variation in maximal responses across plates, no constraints were imposed.

Take `Cc1cc(F)c(Cc2nc(-c3nc(O)c(F)c(CF)n3)cn3ccnc23)cc1F` [Compound I-45, 2-(8-(2,5-difluoro-4-methylbenzyl)imidazo[1,2-a]pyrazin-6-yl)-5-fluoro-6-(fluoromethyl)pyrimidin-4-ol]: the EC50 lay in the range of 100 to 1000 nM.
